# Test system: THP1 cells
# Format: cell-based, human
# Conditions: CA-4948 vs DMSO in THP1 cells
compound,measurement,value
"Cc1cc(-c2nc(C(=O)Nc3cc4oc(N5CCOCC5)nc4nc3N3CC[C@@H](O)C3)co2)ccn1 [CA-4948, emavusertib]",Log(FC) of gene FAM57B,0.9462
same,Log(FC) of gene FAM229A,0.8452
same,Log(FC) of gene FBXO15,−0.5977
same,Log(FC) of gene FCRLB,1.162
same,Log(FC) of gene FFAR4,0.5911
same,Log(FC) of gene FLJ31945,−0.9544
same,Log(FC) of gene FLJ45513,1.668
same,Log(FC) of gene GALR2,0.6354
same,Log(FC) of gene GAS6-AS1,0.6025
same,Log(FC) of gene GDPD3,0.695
same,Log(FC) of gene GIPR,0.6177
same,Log(FC) of gene GJC2,0.7031
same,Log(FC) of gene GNMT,1.408
same,Log(FC) of gene GP9,0.8031
same,Log(FC) of gene GPR3,−0.5921
same,Log(FC) of gene GPR113,0.7578
same,Log(FC) of gene GPR135,0.8057
same,Log(FC) of gene GPR158,−0.6058
same,Log(FC) of gene GSDMB,0.7698
same,Log(FC) of gene GSTM2,0.7484
same,Log(FC) of gene GUCA1B,1.348
same,Log(FC) of gene HHLA3,0.7796
same,Log(FC) of gene HLA-F-AS1,0.5961
same,Log(FC) of gene HPD,0.6253
same,Log(FC) of gene HSPA7,0.9538
same,Log(FC) of gene ID3,0.6893
same,Log(FC) of gene IGFBP3,−0.9606
same,Log(FC) of gene IGFBP7-AS1,0.9516
same,Log(FC) of gene IL8,−0.7139
same,Log(FC) of gene IL9R,1.002
same,Log(FC) of gene IL10RB-AS1,0.6103
same,Log(FC) of gene IPO9-AS1,0.7271
same,Log(FC) of gene ITIH4,1.233
same,Log(FC) of gene KCND1,0.5935
same,Log(FC) of gene KCNIP3,−0.6151
same,Log(FC) of gene KIAA1324,0.7793
same,Log(FC) of gene KRBA2,−0.8123
same,Log(FC) of gene LAMC3,0.6855
same,Log(FC) of gene LDLRAD4,0.7569
same,Log(FC) of gene LHPP,1.078
same,Log(FC) of gene LINC00337,0.6329
same,Log(FC) of gene LINC00641,0.8241
same,Log(FC) of gene LINC00893,0.737
same,Log(FC) of gene LINC00959,0.7922
same,Log(FC) of gene LOC155060,0.6346
same,Log(FC) of gene LOC284889,0.8366
same,Log(FC) of gene LOC644961,0.6222
same,Log(FC) of gene LOC728715,0.6401
same,Log(FC) of gene LOC728752,0.7225
same,Log(FC) of gene LOC100128494,0.9913
same,Log(FC) of gene LOC100129924,1.019
same,Log(FC) of gene LOC100130698,−1.064
same,Log(FC) of gene LOC100130705,0.845
same,Log(FC) of gene LOC100133091,0.5851
same,Log(FC) of gene LOC100134868,0.8444
same,Log(FC) of gene LOC100288069,0.6928
same,Log(FC) of gene LOC100288102,−0.6006
same,Log(FC) of gene LOC100505771,0.7704
same,Log(FC) of gene LOC100506083,0.8144
same,Log(FC) of gene LOC100506100,0.8985
same,Log(FC) of gene LOC100506472,0.7649
same,Log(FC) of gene LOC100506518,0.7779
same,Log(FC) of gene LOC100506548,1.108
same,Log(FC) of gene LOC100507373,0.7784
same,Log(FC) of gene LOC100507424,1.26
same,Log(FC) of gene LOC100507462,0.6976
same,Log(FC) of gene LOC101927085,−0.6948
same,Log(FC) of gene LOC101927119,0.6408
same,Log(FC) of gene LOC101927895,0.6379
same,Log(FC) of gene LOC101927910,1.281
same,Log(FC) of gene LOC101927974,0.7679
same,Log(FC) of gene LOC101928038,0.8781
same,Log(FC) of gene LOC101928055,0.8595
same,Log(FC) of gene LOC101928710,0.5901
same,Log(FC) of gene LOC101928830,0.7631
same,Log(FC) of gene LOC101929046,0.6794
same,Log(FC) of gene LOC101929054,0.589
same,Log(FC) of gene LOC101929112,0.5992

# — patent US20260034112A1, “MULTI-CYCLIC IRAK1 AND IRAK4 INHIBITING COMPOUNDS AND USES THEREOF” (CHILDREN'S HOSPITAL MEDICAL CENTER, priority 2022, published 2026)
